The assay concerns the target T1, RXFP1 (Homo sapiens, UniProt Q9HBX9).
T1 construct: OVCAR5 cells expressing endogenous RXFP1; endogenous in cells; host or cells: OVCAR5
T1 sequence (Q9HBX9 1-757): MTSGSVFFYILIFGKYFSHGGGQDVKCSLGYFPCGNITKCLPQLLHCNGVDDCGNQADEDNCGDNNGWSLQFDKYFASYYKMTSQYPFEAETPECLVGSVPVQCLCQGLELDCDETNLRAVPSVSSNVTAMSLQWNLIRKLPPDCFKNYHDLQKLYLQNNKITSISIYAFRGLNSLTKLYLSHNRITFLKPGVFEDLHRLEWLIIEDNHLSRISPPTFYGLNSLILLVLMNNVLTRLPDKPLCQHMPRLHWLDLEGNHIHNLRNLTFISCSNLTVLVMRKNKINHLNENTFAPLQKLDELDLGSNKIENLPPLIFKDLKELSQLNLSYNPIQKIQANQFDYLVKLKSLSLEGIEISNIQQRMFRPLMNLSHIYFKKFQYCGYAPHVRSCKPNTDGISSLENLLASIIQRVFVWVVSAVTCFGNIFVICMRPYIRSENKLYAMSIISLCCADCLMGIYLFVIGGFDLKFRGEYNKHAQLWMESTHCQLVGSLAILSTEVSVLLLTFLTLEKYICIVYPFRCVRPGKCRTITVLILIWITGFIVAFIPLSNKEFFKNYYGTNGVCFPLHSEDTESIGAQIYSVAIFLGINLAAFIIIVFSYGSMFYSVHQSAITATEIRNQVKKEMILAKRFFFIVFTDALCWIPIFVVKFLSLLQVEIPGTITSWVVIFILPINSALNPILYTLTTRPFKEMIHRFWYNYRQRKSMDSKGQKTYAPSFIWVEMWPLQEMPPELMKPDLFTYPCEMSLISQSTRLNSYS
Nature of the assay: OVCAR5 cAMP assay (HTRF). The class given is cell-based. The conditions noted are these: for EC50: OVCAR 5 cells expressing endogenous RXFP1, cAMP readout; for Emax: OVCAR 5 cells, maximal cAMP relative to H2-relaxin. The method, boiled down:
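Endogenous RXFP1 in OVCAR5 cells, pretreated 40 min at 37° C with 1 mM IBMX, then exposed to increasing peptide concentrations in serum-free medium for 30 min at 37° C. cAMP read by HTRF; EC50 by variable-slope sigmoidal fit, Emax as % of H2-relaxin maximal cAMP in same run.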
Background: Cyclic AMP is a second messenger, typically raised through Gs and lowered through Gi signalling.

Starred links: 1 amine or outer side, 2 acyl side, 3 side chain; linkers in the order of their positions; H or OH if unused. Non-standard residues stand in square brackets, D forms with d. Residues, ends and D or L forms follow the SMILES beside them. Groups on a side chain read outwards from the residue. *: point of attachment. X3 = CCCCCCCCCCCCCCCCCC(=O)N[C@@H](CCC(=O)N[C@@H](CCC(=O)N[C@@H](CCC(=O)NCCCOCCOCCOCCCNC(=O)CCC(=O)NCCCOCCOCCOCCCNC(=O)CCC(=O)NCCCOCCOCCOCCCN*)C(=O)O)C(=O)O)C(=O)O; X1 = CCCCCCCCCCCCCCCC(=O)N[C@@H](CCC(=O)N[C@@H](CCC(=O)N[C@@H](CCC(=O)NCCCOCCOCCOCCCNC(=O)CCC(=O)NCCCOCCOCCOCCCNC(=O)CCC(=O)NCCCOCCOCCOCCCN*)C(=O)O)C(=O)O)C(=O)O; X6 = CCCCCCCCCCCCCC(=O)N[C@@H](CCC(=O)N[C@@H](CCC(=O)N[C@@H](CCC(=O)NCCCOCCOCCOCCCNC(=O)CCC(=O)NCCCOCCOCCOCCCNC(=O)CCC(=O)NCCCOCCOCCOCCCN*)C(=O)O)C(=O)O)C(=O)O; X4 = CCCCCCCCCCCCCCCCCC(=O)N[C@@H](CCC(=O)N[C@@H](CCC(=O)N[C@@H](CCC(=O)NCCCOCCOCCOCCCNC(=O)CCC(=O)NCCCOCCOCCOCCCN*)C(=O)O)C(=O)O)C(=O)O; Suc = O=C(CCC(=O)[*:2])[*:1]; αMeK = C[C@](N)(CCCCN)C(=O)O; hLys = NCCCCC[C@H](N)C(=O)O; Aib = CC(C)(N)C(=O)O

Compound `CCCCCCCCCCCCCCCCCC(=O)N[C@@H](CCC(=O)N[C@@H](CCC(=O)N[C@@H](CCC(=O)NCCCOCCOCCOCCCNC(=O)CCC(=O)NCCCOCCOCCOCCCNC(=O)CCC(=O)NCCCOCCOCCOCCCNC(=O)CCC(=O)NCCCC[C@H](NC(=O)CNC(=O)[C@H](CCC(=O)O)NC(=O)C(C)(C)NC(=O)C(C)(C)NC(=O)[C@@H](NC(=O)[C@H](CCCCNC(C)=O)NC(=O)[C@H](C)NC(=O)[C@H](CCCNC(=N)N)NC(=O)[C@@H](NC(=O)[C@H](CCCCN)NC(=O)[C@H](CCC(=O)O)NC(=O)[C@H](CCCNC(=N)N)NC(=O)CNC(=O)[C@H](CCC(=O)O)NC(=O)[C@H](CC(C)C)NC(C)=O)C(C)C)[C@@H](C)CC)C(=O)N[C@@H](CO)C(=O)N[C@H](C(=O)N[C@@H](Cc1ccccc1)C(=O)N[C@@H](CO)C(=O)NC(C)(C)C(=O)N[C@@H](CCCNC(=N)N)C(=O)N[C@@H](CCCCN)C(=O)N[C@@H](CCCCNC(C)=O)C(N)=O)[C@@H](C)O)C(=O)O)C(=O)O)C(=O)O` [compound 61] (Ac-LEGREKVRAK(Ac)I[Aib][Aib]EGK([Suc-X3])STFS[Aib]RKK(Ac)-NH2) had an EC50 of 0.1 nM and a maximum response (Emax) of 97%.
Compound `CCCCCCCCCCCCCCCCCC(=O)N[C@@H](CCC(=O)N[C@@H](CCC(=O)N[C@@H](CCC(=O)NCCCOCCOCCOCCCNC(=O)CCC(=O)NCCCOCCOCCOCCCNC(=O)CCC(=O)NCCCC[C@H](NC(=O)CNC(=O)[C@H](CCC(=O)O)NC(=O)C(C)(C)NC(=O)C(C)(C)NC(=O)[C@@H](NC(=O)[C@H](CCCCNC(C)=O)NC(=O)[C@H](C)NC(=O)[C@H](CCCNC(=N)N)NC(=O)[C@@H](NC(=O)[C@H](CCCCN)NC(=O)[C@H](CCC(=O)O)NC(=O)[C@H](CCCNC(=N)N)NC(=O)CNC(=O)[C@H](CCC(=O)O)NC(=O)[C@H](CC(C)C)NC(C)=O)C(C)C)[C@@H](C)CC)C(=O)N[C@@H](CO)C(=O)N[C@H](C(=O)N[C@@H](Cc1ccccc1)C(=O)N[C@@H](CO)C(=O)N[C@@](C)(CCCCN)C(=O)N[C@@H](CCCNC(=N)N)C(=O)N[C@@H](C)C(=O)N[C@@H](CCCCNC(C)=O)C(N)=O)[C@@H](C)O)C(=O)O)C(=O)O)C(=O)O` [compound 34] (Ac-LEGREKVRAK(Ac)I[Aib][Aib]EGK([Suc-X4])STFS[αMeK]RAK(Ac)-NH2) showed an EC50 of 0.14 nM and an Emax of 90%.
`CCCCCCCCCCCCCCCC(=O)N[C@@H](CCC(=O)N[C@@H](CCC(=O)N[C@@H](CCC(=O)NCCCOCCOCCOCCCNC(=O)CCC(=O)NCCCOCCOCCOCCCNC(=O)CCC(=O)NCCCOCCOCCOCCCNC(=O)CCC(=O)NCCCC[C@H](NC(=O)CNC(=O)[C@H](CCC(=O)O)NC(=O)C(C)(C)NC(=O)C(C)(C)NC(=O)[C@@H](NC(=O)[C@H](CCCCNC(C)=O)NC(=O)[C@H](C)NC(=O)[C@H](CCCNC(=N)N)NC(=O)[C@@H](NC(=O)[C@H](CCCCN)NC(=O)[C@H](CCC(=O)O)NC(=O)[C@H](CCCNC(=N)N)NC(=O)CNC(=O)[C@H](CCC(=O)O)NC(=O)[C@H](CC(C)C)NC(C)=O)C(C)C)[C@@H](C)CC)C(=O)N[C@@H](CO)C(=O)N[C@H](C(=O)N[C@@H](Cc1ccccc1)C(=O)N[C@@H](CO)C(=O)N[C@@H](CCCCCN)C(=O)N[C@@H](CCCNC(=N)N)C(=O)N[C@@H](C)C(=O)N[C@@H](CCCCNC(C)=O)C(N)=O)[C@@H](C)O)C(=O)O)C(=O)O)C(=O)O` [compound 88] (Ac-LEGREKVRAK(Ac)I[Aib][Aib]EGK([Suc-X1])STFS[hLys]RAK(Ac)-NH2): the EC50 was 0.17 nM and the maximal response (Emax) was found to be 96%.
In turn, `CCCCCCCCCCCCCC(=O)N[C@@H](CCC(=O)N[C@@H](CCC(=O)N[C@@H](CCC(=O)NCCCOCCOCCOCCCNC(=O)CCC(=O)NCCCOCCOCCOCCCNC(=O)CCC(=O)NCCCOCCOCCOCCCNC(=O)CCC(=O)NCCCC[C@H](NC(=O)CNC(=O)[C@H](CCC(=O)O)NC(=O)C(C)(C)NC(=O)C(C)(C)NC(=O)[C@@H](NC(=O)[C@H](CCCCNC(C)=O)NC(=O)[C@H](C)NC(=O)[C@H](CCCNC(=N)N)NC(=O)[C@@H](NC(=O)[C@H](CCCCN)NC(=O)[C@H](CCC(=O)O)NC(=O)[C@H](CCCNC(=N)N)NC(=O)CNC(=O)[C@H](CCC(=O)O)NC(=O)[C@H](CC(C)C)NC(C)=O)C(C)C)[C@@H](C)CC)C(=O)N[C@@H](CO)C(=O)N[C@H](C(=O)N[C@@H](Cc1ccccc1)C(=O)N[C@@H](CO)C(=O)N[C@@](C)(CCCCN)C(=O)N[C@@H](CCCNC(=N)N)C(=O)N[C@@H](C)C(=O)N[C@@H](CCCCNC(C)=O)C(N)=O)[C@@H](C)O)C(=O)O)C(=O)O)C(=O)O` [compound 95] (Ac-LEGREKVRAK(Ac)I[Aib][Aib]EGK([Suc-X6])STFS[αMeK]RAK(Ac)-NH2) registered an EC50 of 1.8 nM and an Emax of 91%.
As for `CCCCCCCCCCCCCCCC(=O)N[C@@H](CCC(=O)N[C@@H](CCC(=O)N[C@@H](CCC(=O)NCCCOCCOCCOCCCNC(=O)CCC(=O)NCCCOCCOCCOCCCNC(=O)CCC(=O)NCCCOCCOCCOCCCNC(=O)CCC(=O)NCCCC[C@H](NC(=O)CNC(=O)[C@H](CCC(=O)O)NC(=O)C(C)(C)NC(=O)C(C)(C)NC(=O)[C@@H](NC(=O)[C@H](CCC(N)=O)NC(=O)[C@H](CCCCNC(C)=O)NC(=O)[C@H](CCCNC(=N)N)NC(=O)[C@@H](NC(=O)[C@H](CCCCN)NC(=O)[C@H](CCC(=O)O)NC(=O)[C@H](CCCNC(=N)N)NC(=O)CNC(=O)[C@H](CCC(=O)O)NC(=O)[C@H](CC(C)C)NC(C)=O)C(C)C)[C@@H](C)CC)C(=O)N[C@@H](CO)C(=O)N[C@H](C(=O)N[C@@H](Cc1c[nH]c2ccccc12)C(=O)N[C@@H](CO)C(=O)NC(C)(C)C(=O)N[C@@H](CCCNC(=N)N)C(=O)N[C@@H](CCCCN)C(=O)N[C@@H](CCCCNC(C)=O)C(N)=O)[C@@H](C)O)C(=O)O)C(=O)O)C(=O)O` [compound 65] (Ac-LEGREKVRK(Ac)QI[Aib][Aib]EGK([Suc-X1])STWS[Aib]RKK(Ac)-NH2), it took 1.19 nM to reach a half-maximal effect (EC50) and the Emax worked out at 95%.
`CCCCCCCCCCCCCCCC(=O)N[C@@H](CCC(=O)N[C@@H](CCC(=O)N[C@@H](CCC(=O)NCCCOCCOCCOCCCNC(=O)CCC(=O)NCCCOCCOCCOCCCNC(=O)CCC(=O)NCCCOCCOCCOCCCNC(=O)CCC(=O)NCCCC[C@H](NC(=O)CNC(=O)[C@H](CCC(=O)O)NC(=O)C(C)(C)NC(=O)C(C)(C)NC(=O)[C@@H](NC(=O)[C@H](CCCCNC(C)=O)NC(=O)[C@H](C)NC(=O)[C@H](CCCNC(=N)N)NC(=O)[C@@H](NC(=O)[C@H](CCCCN)NC(=O)[C@H](CCC(=O)O)NC(=O)[C@H](CCCNC(=N)N)NC(=O)CNC(=O)[C@H](CCC(=O)O)NC(=O)[C@H](CC(C)C)NC(C)=O)C(C)C)[C@@H](C)CC)C(=O)N[C@@H](CO)C(=O)N[C@H](C(=O)N[C@@H](Cc1c[nH]c2ccccc12)C(=O)N[C@@H](CO)C(=O)NC(C)(C)C(=O)N[C@@H](CCCNC(=N)N)C(=O)N[C@@H](CCCCNC(C)=O)C(=O)N[C@@H](CCCCN)C(N)=O)[C@@H](C)O)C(=O)O)C(=O)O)C(=O)O` [compound 68] (Ac-LEGREKVRAK(Ac)I[Aib][Aib]EGK([Suc-X1])STWS[Aib]RK(Ac)K-NH2): the EC50 came out at 0.88 nM and the Emax was determined as 98%.

One may read the EC50 as the concentration that produces a half-maximal response. What is called Emax is the greatest response seen or fitted, relative to the assay's reference.

Values taken from patent publication US11725036B2, “Modified lipidated relaxin B chain peptides and their therapeutic use” (Sanofi, priority 2018, dated 2023).
